Results on 3 compounds are retold here after patent EP4000627A1, “TREATMENT OF ABDOMINAL AORTIC ANEURYSM AFTER ITS CLINICAL MANIFESTATION” (Fundacion Instituto De Investigacion Sanitaria Fundacion …, priority 2020, dated 2022).

Broadly, the amount remaining is the share of the starting amount still present when the sample was taken. Read a low amount remaining as more turnover.

One data set can be described thus: in vitro. The method, then:
(§1) S1 and S1PS5 peptides derived from SOCS1 KIR domain (residues 53-68) conjugated with the cell penetrating sequences at N-terminal were synthesized by solid phase method following the Fmoc strategy, purified by preparative reverse phase-HPLC and lyophilized. Peptides were dissolved in 1% DMSO in saline solution (S1) and H2O (S1PS5), then filter-sterilized and stored at -80°C before use. For biodistribution studies, peptides were labelled with rhodamine or carboxytetramethylrhodamine (TAMRA) at N-terminal. For stability assays, peptides were incubated at 37°C with 25% foetal bovine serum (FBS). At selected times, 80 µL aliquots were taken, precipitated with 15% trichloroacetic acid, and further analysed by reverse phase HPLC with UV detector.

The subject of a further data set is mouse VSMC. In words: cellular uptake of TAMRA-conjugated S1PS5 peptides (confocal microscopy). It counts as cell-based. The following applies: for degraded in cells: at 24 hours, TAMRA fluorescence intensity; for efficient uptake after: quantification of peptide internalization by TAMRA fluorescence intensity.
For data set [1] the following is noted: 24 hours post-injection. The method, then:
as §1

The structures appear in SMILES notation. Where a SMILES comes first, the peptide text is derived from it. Bridges are numbered along the chain shown (N, C = ends). [ ]: non-standard residue; d: D form. The star is where a group is joined. 1Nal = N[C@@H](Cc1cccc2ccccc12)C(=O)O; Acm = CC(=O)NC*

For `CC(=O)NCSC[C@@H]1NC(=O)[C@H]([C@@H](C)O)NC(=O)[C@@H](NC(=O)CNC(=O)CNC(=O)[C@H](CCC(N)=O)NC(=O)[C@@H]2CCCN2C(=O)[C@@H]2CCCN2C(=O)[C@H](CCCNC(=N)N)NC(=O)[C@H](CCCNC(=N)N)NC(=O)[C@H](CCCNC(=N)N)NC(=O)[C@H](CCC(N)=O)NC(=O)[C@H](CCCNC(=N)N)NC(=O)[C@H](CCCNC(=N)N)NC(=O)[C@H](CCCCN)NC(=O)[C@H](CCCCN)NC(=O)[C@H](CCCNC(=N)N)NC(=O)CN)CC(=O)NCCCC[C@@H](C(=O)N[C@@H](Cc2c[nH]cn2)C(=O)O)NC(=O)[C@H](CCCNC(=N)N)NC(=O)[C@H](Cc2ccccc2)NC(=O)[C@H]([C@@H](C)O)NC(=O)[C@H](CCC(N)=O)NC(=O)[C@H](CCCNC(=N)N)NC1=O` [internal cyclic S1PS5, GRKKRRQRRRPPQGGDTCAcmRQTFRKH] (H-GRKKRRQRRRPPQGGDTC(Acm)RQTFRKH-OH; lactam 16-24), in the data set “in vitro” (25% foetal bovine serum), the metabolised at 20 h was around 40%. Also, in the data set on mouse VSMC, the degraded in cells result is “almost completely degraded” and the efficient uptake after is around 2 h.
As for `CC(=O)NCSC[C@H](NC(=O)[C@@H](NC(=O)[C@H](CC(=O)O)NC(=O)CNC(=O)CNC(=O)[C@H](CCC(N)=O)NC(=O)[C@@H]1CCCN1C(=O)[C@@H]1CCCN1C(=O)[C@H](CCCNC(=N)N)NC(=O)[C@H](CCCNC(=N)N)NC(=O)[C@H](CCCNC(=N)N)NC(=O)[C@H](CCC(N)=O)NC(=O)[C@H](CCCNC(=N)N)NC(=O)[C@H](CCCNC(=N)N)NC(=O)[C@H](CCCCN)NC(=O)[C@H](CCCCN)NC(=O)[C@H](CCCNC(=N)N)NC(=O)CN)[C@@H](C)O)C(=O)N[C@@H](CCCNC(=N)N)C(=O)N[C@@H](CCC(N)=O)C(=O)N[C@H](C(=O)N[C@@H](Cc1ccccc1)C(=O)N[C@@H](CCCNC(=N)N)C(=O)N[C@@H](CO)C(=O)N[C@@H](Cc1c[nH]cn1)C(=O)O)[C@@H](C)O` [linear S1PS5, GRKKRRQRRRPPQGGDTCAcmRQTFRSH] (H-GRKKRRQRRRPPQGGDTC(Acm)RQTFRSH-OH), the degradation rate in the data set “in vitro” (25% FBS, 37°C, at 17-20 hours) is 40%.
For the compound `CC(=O)NCSC[C@@H]1NC(=O)[C@H]([C@@H](C)O)NC(=O)[C@@H](NC(=O)CNC(=O)CNC(=O)[C@H](CCC(N)=O)NC(=O)[C@@H]2CCCN2C(=O)[C@@H]2CCCN2C(=O)[C@H](CCCNC(=N)N)NC(=O)[C@H](CCCNC(=N)N)NC(=O)[C@H](CCCNC(=N)N)NC(=O)[C@H](CCC(N)=O)NC(=O)[C@H](CCCNC(=N)N)NC(=O)[C@H](CCCNC(=N)N)NC(=O)[C@H](CCCCN)NC(=O)[C@H](CCCCN)NC(=O)[C@H](CCCNC(=N)N)NC(=O)CN)CC(=O)NCCCC[C@@H](C(=O)N[C@@H](Cc2c[nH]cn2)C(=O)O)NC(=O)[C@H](CCCNC(=N)N)NC(=O)[C@H](Cc2cccc3ccccc23)NC(=O)[C@H]([C@@H](C)O)NC(=O)[C@H](CCC(N)=O)NC(=O)[C@H](CCCNC(=N)N)NC1=O` [internal cyclic S1PS5 Nal1, GRKKRRQRRRPPQGGDTCAcmRQTNal1RKH] (H-GRKKRRQRRRPPQGGDTC(Acm)RQT[1Nal]RKH-OH; lactam 16-24), the “localization in aortic tissue (confocal analysis)” value in data set [1] is “detected”. In “in vitro” (25% foetal bovine serum), this compound had a metabolised at 20 h of around 20% and a share remaining at 42 h of around 40%. Moreover, in the data set on mouse VSMC, the degraded in cells was 40% and the efficient uptake after was around 2 h.
